Data: ChEMBL document CHEMBL4342527, “Discovery of Novel Fungal Lanosterol 14α-Demethylase (CYP51)/Histone Deacetylase Dual Inhibitors to Treat Azole-Resistant Candidiasis” (J Med Chem, 2020)
Converted amounts (≈) assume the structure as drawn.

Tests used:
[1] = test system: Candida albicans; assay: Antifungal activity against azole-resistant Candida albicans 7781 after 48 hrs by spectrophotometry-based serial microdilution method; assay type: functional; conditions: Candida albicans, 7781, 48 h
[2] = test system: Candida albicans; assay: Antifungal activity against azole-resistant Candida albicans 0304103 after 48 hrs by spectrophotometry-based serial microdilution method; assay type: functional; conditions: Candida albicans, 0304103, 48 h
[3] = test system: Candida albicans; assay: Antifungal activity against azole-sensitive Candida albicans SC5314 after 48 hrs by spectrophotometry-based serial microdilution method; assay type: functional
[4] = test system: Cryptococcus neoformans; assay: Antifungal activity against azole-sensitive Cryptococcus neoformans H99 after 72 hrs by spectrophotometry-based serial microdilution method; assay type: functional, var grubii H99
[5] = test system: Candida albicans; assay: Antifungal activity against azole-resistant Candida albicans 4108 after 48 hrs by spectrophotometry-based serial microdilution method; assay type: functional; conditions: Candida albicans, 4108, 48 h
[6] = test system: Candida tropicalis; assay: Antifungal activity against azole-resistant Candida tropicalis 5008 after 48 hrs by spectrophotometry-based serial microdilution method; assay type: functional; conditions: Candida tropicalis, 5008, 48 h
[7] = Candida albicans, SC5314, 48 h, read-out: MIC80
[8] = Cryptococcus neoformans, var grubii H99 , 72 h, read-out: MIC80

Row | SMILES | MIC80 [1] [µg/mL] | MIC80 [2] [µg/mL] | MIC80 [3, 7] [µg/mL] | MIC80 [4, 8] [µg/mL] | MIC80 [5] [µg/mL] | MIC80 [6] [µg/mL] | MIC80 [3] [µg/mL] | MIC80 [4] [µg/mL]
1 | CN(Cc1ccc(-n2cnn(CCOc3ccc(CC(=O)NO)cc3)c2=O)cc1)CC(O)(Cn1cncn1)c1ccc(F)cc1F (racemic) | 4 (≈ 6.3 µM) | 4 (≈ 6.3 µM) | 2 (≈ 3.15 µM) | 4 (≈ 6.3 µM) | 32 (≈ 50.4 µM) | 8 (≈ 12.6 µM) | – | –
2 | CN(Cc1ccc(OCCCCCCC(=O)NO)cc1)CC(O)(Cn1cncn1)c1ccc(F)cc1F (racemic) | 1 (≈ 1.93 µM) | 1 (≈ 1.93 µM) | 1 (≈ 1.93 µM) | 1 (≈ 1.93 µM) | 1 (≈ 1.93 µM) | 2 (≈ 3.86 µM) | – | –
3 | CN(Cc1ccc(OCCCOc2ccc(CCC(=O)NO)cc2)cc1)CC(O)(Cn1cncn1)c1ccc(F)cc1F (racemic) | 2 (≈ 3.36 µM) | 2 (≈ 3.36 µM) | 1 (≈ 1.68 µM) | 1 (≈ 1.68 µM) | 4 (≈ 6.72 µM) | 4 (≈ 6.72 µM) | – | –
4 | CN(Cc1ccc(CCCC(=O)Nc2ccc(C(=O)NO)cc2)cc1)CC(O)(Cn1cncn1)c1ccc(F)cc1F (racemic) | 8 (≈ 13.8 µM) | 16 (≈ 27.7 µM) | 4 (≈ 6.91 µM) | 8 (≈ 13.8 µM) | 32 (≈ 55.3 µM) | 8 (≈ 13.8 µM) | – | –
5 | CN(Cc1ccc(-n2cnn(CCCCCCC(=O)NO)c2=O)cc1)CC(O)(Cn1cncn1)c1ccc(F)cc1F (racemic) | 32 (≈ 54.7 µM) | 16 (≈ 27.4 µM) | 64 (≈ 109 µM) | 8 (≈ 13.7 µM) | 64 (≈ 109 µM) | 64 (≈ 109 µM) | – | –
6 | CN(Cc1cccc(OCCCOc2ccc(CC(=O)NO)cc2)c1)CC(O)(Cn1cncn1)c1ccc(F)cc1F (racemic) | 2 (≈ 3.44 µM) | 4 (≈ 6.88 µM) | 2 (≈ 3.44 µM) | 1 (≈ 1.72 µM) | 2 (≈ 3.44 µM) | 2 (≈ 3.44 µM) | – | –
7 | CC(C)N(Cc1ccc(OCCCOc2ccc(CC(=O)NO)cc2)cc1)CC(O)(Cn1cncn1)c1ccc(F)cc1F (racemic) | 2 (≈ 3.28 µM) | 2 (≈ 3.28 µM) | 2 (≈ 3.28 µM) | 2 (≈ 3.28 µM) | 4 (≈ 6.56 µM) | 4 (≈ 6.56 µM) | – | –
8 | CN(Cc1ccc(-n2cnn(CCCC(=O)NO)c2=O)cc1)CC(O)(Cn1cncn1)c1ccc(F)cc1F (racemic) | 32 (≈ 59 µM) | 64 (≈ 118 µM) | 8 (≈ 14.7 µM) | 2 (≈ 3.69 µM) | 8 (≈ 14.7 µM) | 8 (≈ 14.7 µM) | – | –
9 | CN(Cc1ccc(OCCCCC(=O)NO)cc1)CC(O)(Cn1cncn1)c1ccc(F)cc1F (racemic) | 2 (≈ 4.09 µM) | 2 (≈ 4.09 µM) | 2 (≈ 4.09 µM) | 2 (≈ 4.09 µM) | 8 (≈ 16.3 µM) | 8 (≈ 16.3 µM) | – | –
10 | CN(Cc1ccc(CCCOc2ccc(CC(=O)NO)cc2)cc1)CC(O)(Cn1cncn1)c1ccc(F)cc1F (racemic) | 0.25 (≈ 0.442 µM) | 0.5 (≈ 0.884 µM) | 0.125 (≈ 0.221 µM) | 0.5 (≈ 0.884 µM) | 0.5 (≈ 0.884 µM) | 2 (≈ 3.54 µM) | – | –
11 | CN(Cc1ccccc1OCCCOc1ccc(CCC(=O)NO)cc1)CC(O)(Cn1cncn1)c1ccc(F)cc1F (racemic) | 1 (≈ 1.68 µM) | 1 (≈ 1.68 µM) | 1 (≈ 1.68 µM) | 2 (≈ 3.36 µM) | 2 (≈ 3.36 µM) | 64 (≈ 107 µM) | – | –
12 | O=C(Cc1ccc(OCCCc2ncn(CC(O)(Cn3cncn3)c3ccc(F)cc3F)n2)cc1)NO (racemic) | 8 (≈ 15.6 µM) | 32 (≈ 62.3 µM) | 32 (≈ 62.3 µM) | 32 (≈ 62.3 µM) | > 64 | 64 (≈ 125 µM) | – | –
13 | CN(Cc1ccc(OCCCOc2ccc(C(=O)NO)cc2)cc1)CC(O)(Cn1cncn1)c1ccc(F)cc1F (racemic) | 1 (≈ 1.76 µM) | 0.5 (≈ 0.881 µM) | 0.125 (≈ 0.22 µM) | 0.5 (≈ 0.881 µM) | 1 (≈ 1.76 µM) | 0.25 (≈ 0.44 µM) | – | –
14 | O=C(NO)c1ccc(OCCCCc2ncnn2CC(O)(Cn2cncn2)c2ccc(F)cc2F)cc1 (racemic) | > 64 | 32 (≈ 62.3 µM) | 32 (≈ 62.3 µM) | 64 (≈ 125 µM) | > 64 | > 64 | – | –
15 | O=C(NO)c1ccc(OCCCc2ncn(CC(O)(Cn3cncn3)c3ccc(F)cc3F)n2)cc1 (racemic) | 8 (≈ 16 µM) | 64 (≈ 128 µM) | 8 (≈ 16 µM) | 64 (≈ 128 µM) | 32 (≈ 64.1 µM) | 64 (≈ 128 µM) | – | –
16 | O=C(Cc1ccc(OCCCc2ncnn2CC(O)(Cn2cncn2)c2ccc(F)cc2F)cc1)NO (racemic) | 16 (≈ 31.2 µM) | 32 (≈ 62.3 µM) | 8 (≈ 15.6 µM) | 64 (≈ 125 µM) | > 64 | > 64 | – | –
17 | CCC(C)n1ncn(-c2ccc(N3CCN(c4ccc(OCC5COC(Cn6cncn6)(c6ccc(Cl)cc6Cl)O5)cc4)CC3)cc2)c1=O (stereo not given) [ITRACONAZOLE] | > 64 | > 64 | 0.5 (≈ 0.709 µM) | 0.125 (≈ 0.177 µM) | > 64 | > 64 | – | –
18 | C[C@@H](c1ncncc1F)[C@](O)(Cn1cncn1)c1ccc(F)cc1F [VORICONAZOLE] | > 64 | > 64 | 0.125 (≈ 0.358 µM) | 0.0625 (≈ 0.179 µM) | > 64 | > 64 | – | –
19 | O=C(CCCCCCC(=O)Nc1ccccc1)NO [VORINOSTAT] | – | – | – | – | – | – | >64 | >64
